Experimental data reported in PMC9313812, “The Pseudo‐Natural Product Rhonin Targets RHOGDI” (Angewandte Chemie (International Ed. in English), 2022).
Blank lines part the entries; values can stand above or below the compound they belong to.

Assays:
C3H10T1/2 cells = assay: Osteoblast differentiation in presence of low or high SAG; assay type: cell-based, mouse; settings: low and high concentration of SMO agonist SAG
Procedure: cilia were stained with an antibody against acetylated tubulin. SMO was marked with an anti-SMO antibody and DAPI was used to stain the nuclei. For quantification of cilia, at least 100 cilia per condition and biological replicate were analyzed for the intensity of anti-acetylated tubulin antibody staining. The results of one representative biological replicate are shown and each data point represents the intensity value of one single cilium. Statistical significance was evaluated using an unpaired t-test with a confidence interval of 95 % (p ≤ n.s.). (d and e) Influence Vismodegib (d) or GANT61 (e) on osteoblast diffe rentation of C3H10T1/2 cells in presence of low (0.1 µM) or high (1 µM) concentration of the SMO agonist SAG. Data are mean values of three independent biological replicates (n= 3) ± SD. (f) Fluorescent polarization measurements were performed by titrating 1 μM TAMRA-GDP-bound RAC1 with increasing […]
µM Rhonin. Data are mean values (n = 3) ± SD. (g) Structure of the lysine-reactive probe […]
(§1) (1 picture or pasted object on this page, not shown here)

C3H/10T1/2 cells = assay: Osteoblast differentiation assay (ODA): purmorphamine-induced osteogenesis, alkaline phosphatase luminescence readout; assay type: cell-based, mouse; settings: for IC50: Mus musculus, C3H 10T1/2, Table S7, 1.5 µM purmorphamine, 96 h, mean ± SD, n=3, highest test concentration 30 µM, read-out: Osteogenesis IC50
Procedure: Supplementary Table S7. Inhibition of osteogenesis assay. C3H10T1/2 cells were incubated with 1.5 µM purmorphamine and compounds or DMSO as a control for 96 h. The activity of alkaline phosphatase was assessed by means of a luminescence readout. Values for cells, which were treated with DMSO and purmorphamine, were set to 100% and data were measured in […]
concentration of 30 µM. All data are mean values of three independent experiments (n = 3) ± […]
Compound Osteogenesis IC50
as §1
NIH/3T3 cells were obtained from DSMZ, Germany (DSMZ ACC 59) and were cultured in DMEM (high glucose) supplemented with 10% heat-inactivated FCS, 2 mM L -glutamine and 1 mM sodium pyruvate. Shh -LIGHT2 cells (NIH/3T3 cells stably transfected with a Gli-responsive firefly luciferase reporter plasmid and a pRL-TK constituitive Renilla luciferase expression vector)[4] were cultured in the same culturing medium supplemented with 400 μg ml −1 G418 and 150 μg ml −1 Zeocin as selecting agents. The murine osteoblasts C3H/10T1/2 (ATCC CCL-226) were obtained from ATCC, USA and were cultured in DMEM (high glucose) supplemented with 10% heat-inactivated FCS, 6 mM L -glutamine, 1 mM sodium pyruvate. HEK293T cells (ATCC, England) were grown in DMEM containing 10% FBS, 100 U ml −1 penicillin and 0.1 mg ml −1 streptomycin. All cell lines were maintained at 37 °C and 5% CO 2 in a humidified atmosphere. All the cell lines were regularly assayed for mycoplasma and were confirmed to be mycoplasma-free. Transfection of DNA constructs and siRNAs were performed using FuGENE HD (Promega), Lipofectamine® LTX (Invitrogen) and DharmaFECT™ (GE Healthcare) transfection reagent according to the manufacturer’s […]
Osteoblast differentiation assay
The osteoblast differentiation assay was performed by the Compound Management and Screening Center (COMAS) in Dortmund, Germany. C3H/10T1/2 cells were seeded (800 per well) in white 384-well plates or (6000 per well) in 96-well plates. After incubation for 16 h, compounds or DMSO were added to the cells using the acoustic nanoliter dispenser ECHO 520 (Labcyte) and osteogenesis was induced with 1.5 µM purmorphamine. Plates were incubated for 96 h at 37 °C and 5% CO2. Alkaline phosphatase activity was measured by replacing the medium with osteogenesis-lysis buffer (lysis buffer: 100 mM Tris pH 9.5, 250 mM NaCl, 25 mM MgCl2, 1% Triton X-100, sterile filtered) containing 1:100 chemiluminescent substrate CDP-Star® (Promega, 384-well plates: 35 µL, 96-well plates: 50 µL) for one hour in the dark at 25 °C. In 384-well plates, the luminescence was monitored using the Paradigm plate reader (Molecular Devices, USA), whereas Spark plate reader (Tecan, Austria) was used to measure luminescence in 96-well plates. Dose-response analyses were performed for all hit compounds […]
using a three-fold dilution series starting from a concentration of 30 μM. Half-maximal inhibitory concentrations (IC50) were calculated using the Quattro software suite (Quattro Research, Planegg, Germany) or GraphPad Prism 7 (GraphPad, USA).
The effect of test compounds on the viability of C3H/10T1/2 cells was determined by CellTiter-Glo Luminescence cell viability assay (Promega). Cells were treated as described for the osteogenesis assay prior to addition of the CellTiter-Glo® reagent according to manufacturer’s protocol. Compounds causing at least a 50% reduction in the osteogenesis assay and retaining cell viability of at least 80% were considered as hits. Dose-response analyses were performed for all hit compounds using a three-fold dilution series starting from a concentration of 30 μM. Half-maximal inhibitory concentrations (IC50) were calculated using the Quattro software suite (Quattro Research GmbH). […]

Shh-LIGHT2 cells = assay: GLI-dependent reporter gene assay (RGA); assay type: cell-based; settings: Shh Light2; Figure 2a; mean of three independent experiments
Procedure: using a three-fold dilution series starting from a concentration of 30 μM. Half-maximal inhibitory concentrations (IC50) were calculated using the Quattro software suite (Quattro Research, Planegg, Germany) or GraphPad Prism 7 (GraphPad, USA). […]
GLI-dependent reporter gene assay
Shh-LIGHT2 cells were seeded (2.5×10^4 per well) in 96-well plates. After incubation for 16 h, medium was replaced by low serum-containing medium (0.5% FCS) supplemented with 1.5 μM purmorphamine and various concentrations of the compounds or DMSO as a control and cells were incubated for 48 h. […]

NIH/3T3 lysate proteins [1] = target: T1, NIH/3T3 lysate proteins (Mus musculus, UniProt Q99PT1); assay: Affinity chromatography (pulldown) with immobilized probes, HRMS label-free quantification and immunoblotting; assay type: binding; settings: fold excess enriched with active probe 8 vs inactive probe 9
T1 construct: endogenous in cells; host or cells: NIH/3T3
Procedure: (§2) Supplementary Table S8. List of proteins enriched by the active probe 8 as identified by means of affinity chromatography. […]
(§3) on NHS ester magnetic beads. NIH/3T3 lysate was passed on to the probes and target protein identification was performed employing HRMS analysis as described in the methods section.
(§4) The ratios indicate the fold excess of protein enriched with the active probe 8 as compared to […]
(§5) Apart from filamin –B and –C and RHOGDI1, all enriched proteins were known frequent binders in pulldown assays.
(§6) Protein name Gene symbol Ratio
(§7) RHO GDP-dissociation inhibitor 1 Arhgdia 33
(§8) Guanine nucleotide -binding protein subunit beta -2-like
(§9) 1;Guanine nucleotide -binding protein subunit beta -2-like 1, N- Gnb2l1 6 […]
(§10) ATPase inhibitor, mitochondrial Atpif1 4
(§11) Hsc70-interacting protein St13 4
(§12) Tropomyosin alpha -4 chain Tpm4 4
(§13) Ribosome-recycling factor, mitochondrial Mrrf 3
(§14) (1 picture or pasted object on this page, not shown here) […]
(§15) intensities was performed by densitometry of scanned signals with the aid of image studio software (Version 4.0.21, LI-COR Biosciences, ©2014). […]
(§16) Cell lysate preparation for chemical proteomics
(§17) NIH/3T3 cells were grown to 90-95% confluence and were then detached using cell dissociation solution for 5 min at 37 °C and 5% CO2. Cells were suspended in cell culture medium and pelleted by centrifugation at 250 x g, 5 min at 4 °C. Cell pellets were then washed thrice with ice-cold PBS and lysed in lysis buffer containing 50 mM PIPES, 50 mM NaCl, 5 mM MgCl2, 5 mM EGTA, 0.1 % NP40, 0.1 % Triton X-100, 0.1 % Tween®20, with freshly added 1 mM DTT, EDTA-free protease inhibitors (Complete EDTA-free, Roche) and phosphatase inhibitors (PhosphoSTOP, Roche). To assure complete cell lysis, the suspension was passed through […] cannula 10 times each and incubated on ice for 40 min with intermittent vortexing every five minutes until a homogeneous mixture was obtained.
(§18) The resulting homogenate was centrifuged at 18,000 x g for 30 min at 4 °C and the supernatant was subsequently snap frozen in liquid nitrogen and stored at -80 °C. Total protein content was determined by DC protein assay (Bio-Rad, Germany).
(§19) Affinity chromatography enrichment of compound-bound proteins
(§20) 25 µL N-hydroxysuccinimide magnetic beads (GE Healthcare) were activated with 500 µL 1 mM HCl for 1 min. HCl was replaced by 500 µL coupling buffer (0.15 M triethanolamine, […]
(§21) incubated for 2 h at room temperature with overhead rotation. The residual active groups of N-hydroxysuccinimide magnetic were quenched by alternating incubation with 500 µL block A buffer (0.5 M ethanolamine, 0.5 M NaCl, pH 8.3) and block B buffer (0.1 M sodium acetate, 0.5 M NaCl, pH 4.0) for 5 min three times each. For protein binding, the magnetic beads were equilibrated with 500 µL lysis buffer followed by incubation with 500 µL lysate (protein concentration: 2 mg/mL) 2 h at 4 °C with overhead rotation. In order to wash out non-specifically bound proteins, the beads were first washed with 500 µL lysis buffer containing 25 mM MgCl2 followed by three times washing with 500 µL PBS. Tryptic digestion of bead-bound proteins was carried out in two stages. First, bound proteins were reduced by incubating the beads with 50 µL reducing buffer (1 mM DTT, 8 M urea in 50 mM Tris (pH 7.5)) at 30 °C for 30 min with shaking. Later, the reduced proteins were alkylated by addition of 5.5 µL alkylating solution (1 mM DTT, 50 mM chloroacetamide, 8 M urea in 50 mM Tris pH 7.5) and further incubation in the dark at 30 °C for 30 min while shaking at 350 rpm. The reduced and alkylated proteins were digested by adding 1 µg LysC at 37 °C for 1 h while shaking at 350 rpm. The supernatant was transferred to a new tube and the beads were further incubated with 50 mM Tris-HCl (pH 7.5) containing 1 µg trypsin at 37 °C for 1 h while shaking at 350 rpm.
(§22) Both supernatants were combined together and further digested by adding 2 µg trypsin for 16 h at 37 °C with continuous shaking. The enzymatic digestion was stopped by addition of 2 µL […]

NIH/3T3 lysate proteins [2] = assay: as above; assay type: binding
Procedure: as §2, §3, §4, §5, §6, §7, §8, §9, §10, §11, §12, §13, §14, §15, §16, §17, §18, §19, §20, §21, §22

[3] = fold excess enriched with active probe 8 vs inactive probe 9

T1 sequence (Q99PT1 2-204): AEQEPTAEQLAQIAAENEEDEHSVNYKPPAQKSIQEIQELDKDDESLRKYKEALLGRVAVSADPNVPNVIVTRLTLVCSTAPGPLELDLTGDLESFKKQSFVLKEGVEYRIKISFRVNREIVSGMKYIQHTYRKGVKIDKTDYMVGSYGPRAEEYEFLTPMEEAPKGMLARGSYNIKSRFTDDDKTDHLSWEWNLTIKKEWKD

SMILES: CS(=O)(=O)c1ccc(C(=O)Nc2ccc(Cl)c(-c3ccccn3)c2)c(Cl)c1 [Vismodegib]
Potency in osteogenesis in presence of 0.1 μM vs 1 μM SAG (in words) (C3H10T1/2 cells): decreased potency

SMILES: COC(=O)C1(C(CC(=O)c2ccccc2)c2ccc(C(=O)NCCOCCOCCN)cc2)N=C(c2ccc(Br)cc2)C2C(=O)N(C)C(=O)C21 (stereo not drawn) [compound 8]
Ratio, RHO GDP-dissociation inhibitor 1 (Arhgdia) (NIH/3T3 lysate proteins [1]): 33
Ratio, 60S ribosomal protein L32 (Rpl32) (NIH/3T3 lysate proteins [2]; [3]): 9
Ratio, ATPase inhibitor, mitochondrial (Atpif1) (NIH/3T3 lysate proteins [2]; [3]): 4
Ratio, Filamin-B (Flnb) (NIH/3T3 lysate proteins [2]; [3]): 36
Ratio, Filamin-C (Flnc) (NIH/3T3 lysate proteins [2]; [3]): 27
Ratio, Guanine nucleotide-binding protein subunit beta-2-like 1 (Gnb2l1) (NIH/3T3 lysate proteins [2]; [3]): 6
Ratio, Hsc70-interacting protein (St13) (NIH/3T3 lysate proteins [2]; [3]): 4
Ratio, Ribosome-recycling factor, mitochondrial (Mrrf) (NIH/3T3 lysate proteins [2]; [3]): 3
Ratio, Tropomyosin alpha-4 chain (Tpm4) (NIH/3T3 lysate proteins [2]; [3]): 4
Enrichment of proteins by probe, immunoblotting after pulldown (in words) (NIH/3T3 lysate proteins [2]; probe 8 compared with control probe 9, NIH/3T3 lysates): selective enrichment of RHOGDI1

More lines, main results first:

IC50 (C3H/10T1/2 cells): 2.81 ± 0.4 µM
IC50 (Shh-LIGHT2 cells): 4.24 µM
SMILES: COC(=O)C1(CCC(=O)C=Cc2ccccc2)N=C(c2ccc(Br)cc2)C2C(=O)N(C)C(=O)C21 (stereo not drawn) [7e]

IC50 (C3H/10T1/2 cells): 6.2 ± 1.3 µM
IC50 (Shh-LIGHT2 cells): 8 µM
SMILES: COC(=O)C1(CCC(C)=O)N=C(c2ccc(Br)cc2)C2C(=O)N(C)C(=O)C21 (stereo not drawn) [7c]
Inhibition of Hh-/purmorphamine-induced osteogenesis (in words) (C3H/10T1/2 cells; C3H/10T1/2 cells, purmorphamine): active

IC50 (C3H/10T1/2 cells): 3.13 ± 0.2 µM
IC50 (Shh-LIGHT2 cells): 6.15 µM
SMILES: COC(=O)C1(C=CC(=O)c2ccccc2)N=C(c2ccc(Br)cc2)C2C(=O)N(C)C(=O)C21 (stereo not drawn) [7g]
